# Experimental data published in article PMC5320730, “Synthetic curcumin derivative DK1 possessed G2/M arrest and induced apoptosis through accumulation of intracellular ROS in MCF-7 breast cancer cells” (Cancer Cell International, 2017).
# Legend:
# [1] = system: MCF-7 cells; details: cited from earlier work
# [2] = system: MCF-7 cells; experiment: MTT cell viability assay, MCF-7; format: cell-based, human; details: for IC50: Homo sapiens, MCF7, MCF-7, MTT
# Procedure: (§1) Promyelocytic leukemia HL60, hepatoblastoma HepG2, breast cancer MCF-7 and MDA-MB-231 cells were purchased from ATCC (USA) and cultured in RPMI-1640 media (Sigma, USA), supplemented with 10% fetal bovine serum (FBS) (PAA, USA). Normal epithelial MCF-10A cells (ATCC, USA) was maintain in DMEM-F12 (Sigma, USA) supplemented with hydrocortisone (0.5 μg/mL), insulin (10 μg/mL), human epidermal growth factor (hEGF) (20 ng/mL) (Sigma, USA) and 10% FBS (PAA, USA).
# (§2) MTT cell viability assay was used to evaluate the effect of DK1 on viability of HL-60, HepG2, MCF-7, MDA-MB-231 and MCF-10A cells. Briefly, each type of cells (8 × 10^4cells/well) was seeded in 96-well plate in 37 °C CO2 incubator overnight. Then, DK1 was added at concentration ranging between 200 and 3.125 µM by twofold serial dilution. Untreated control was prepared simultaneously. After that, the cells were incubated for 24, 48 and 72 h at 37 °C in 5% CO2 incubator. After the incubation period, all well was added with 20 μL of MTT solution (5 mg/mL) and further incubated for 3 h. Subsequently, 170 μL of supernatant from each well was discarded, 100 μL of dimethyl sulfoxide (DMSO) was added to solubilize the purple formazan crystal and the absorbance was measured at a wavelength of 570 nm by Enzyme-linked immunosorbent assay (ELISA) plate reader (Bio-tek instruments, USA). All cell lines were assayed for three biological replicates each with triplicates. Percentage of cell viability was calculated using the following formula: Cell viability%=OD sample/OD control×100%
# (§3) IC50 value (concentration of DK1 that reduce 50% of cell viability compared to control cell) was determined from the graph of cell viability (%) vs DK1 concentration. Subsequently, selective index, which indicating selectivity of DK1 against cancerous and normal breast cell lines, was calculated by: Selective indexSI=IC50of DK1on normal MCF-10A cell line/IC50on breast cancerous cell lineHL60/HepG2/MCF-7/MDA-MB-231
# [3] = system: MCF-10A cells; experiment: MTT cell viability assay, normal MCF-10A; format: cell-based; details: Homo sapiens
# Procedure: as §1, §2, §3
# [4] = system: MCF-7 cells; experiment: Flow cytometry AnnexinV-FITC/PI apoptosis analysis; format: cell-based, human
# Procedure: Apoptosis of DK1 treated MCF-7 was compared with the control cell by Flow cytometry AnnexinV-FITC/PI apoptosis assay. Briefly, harvested cells were resuspended in 100 μL of 1× binding buffer and stained with 5 μL each of AnnexinV-FITC and propidiumiodide. After 15 min of incubation, the cells were added with 400 μL of 1× binding buffer and subjected to BD FACS Calibur flow cytometer analysis using BD Cell Quest Pro software (Becton–Dickinson, USA).
# [5] = system: HepG2 cells; experiment: MTT cell viability assay, HepG2; format: cell-based; details: Homo sapiens
# Procedure: as §1, §2, §3
# [6] = system: p53 in MCF-7 cells; experiment: Western blot analysis of p53; format: cell-based, human
# Procedure: Total protein was extracted from harvested cell with Radioimmunoprecipitation assay (RIPA) buffer supplemented with phosphatase inhibitor cocktail (Roche, Canada) and the concentration was quantified by Bradford assay (Sigma, USA). Then, 100 μg of extracted protein was subjected to sodium dodecyl sulfate polyacrylamide gel electrophoresis (SDS-PAGE) (Bio-Rad, USA), transferred to nitrocellulose membrane, block with 0.5% skimmed milk overnight, washed with Tris-buffered saline tween (TBST) buffer and incubated with primary antibodies (anti-CDC2, anti-pCDC2 (Tyr15), anti-p53, and anti-β-actin at a dilution of 1:1000 (Abcam, USA) for 1 h. After that, membranes were washed, incubated with 1:5000 diluted goat anti-rabbit IgG H&L conjugated to […] (Abcam, USA) and developed under chemiluminescence condition (Super Signal West Pico, Pierce, USA) using the ChemiDoc XRS (Bio-Rad, USA). Differential level of evaluated protein in control and DK1 treated MCF-7 was calculated based on the bands intensity analyzed using the Quantity One 1D Analysis software (Bio-rad, USA).
# [7] = system: MDA-MB-231 cells; experiment: MTT cell viability assay, MDA-MB-231; format: cell-based, human; details: for IC50: Homo sapiens, MDA-MB-231, MTT
# Procedure: as §1, §2, §3
# [8] = system: HL-60 cells; experiment: MTT cell viability assay, HL-60; format: cell-based; details: Homo sapiens, HL-60, MTT
# Procedure: as §1, §2, §3
# [9] = system: PLK1, p21 and WEE-1 expression in MCF-7 cells; experiment: qRT-PCR of cell cycle related genes; details: MCF-7, curcumin 30 µM, 72 h
compound,measurement,setting,value
4-hydroxy tamoxifen,SI,[1]; normal vs cancerous cell line,< 2
"COc1cc(/C=C/C(=O)CC(=O)/C=C/c2ccc(O)c(OC)c2)ccc1O [Curcumin, diferuloylmethane]",IC50,[2]; 24 h,40.7 ± 3.24 µM
same,IC50,[2]; 48 h,36.6 ± 2.31 µM
same,IC50,[2]; 72 h,30.2 ± 2.36 µM
same,Selective index of MCF-10A/MCF-7,"[2]; IC50 MCF-10A / IC50 MCF-7, 24 h",4.67
same,Selective index of MCF-10A/MCF-7,"[2]; IC50 MCF-10A / IC50 MCF-7, 72 h",3.33
same,IC50,[3]; 24 h,190 ± 3.67 µM
same,IC50,[3]; 48 h,114 ± 3.57 µM
same,IC50,[3]; 72 h,100 ± 3.17 µM
same,"late apoptosis, folds lower than DK1 treatment","[4]; MCF-7, 72 h, curcumin 30 µM vs DK1 25 µM",2.6 folds
same,late apoptosis,"[4]; MCF-7, curcumin 30 µM, 72 h, AnnexinV/PI",15%
same,IC50,[5]; 24 h,67.9 ± 2.88 µM
same,IC50,[5]; 48 h,40.7 ± 2.76 µM
same,IC50,[5]; 72 h,24.4 ± 2.25 µM
same,"deregulation of apoptosis related genes or proteins, particularly p53, compared to DK1","[6]; MCF-7, curcumin 30 µM, 72 h",lower degree of deregulation
same,significant upregulation of p53,[6]; curcumin treated MCF-7,absent
same,IC50,[7]; 24 h,35.3 ± 4.16 µM
same,IC50,[7]; 48 h,21.7 ± 1.87 µM
same,IC50,[7]; 72 h,21.7 ± 3.18 µM
same,Selective index of MCF-10A/MDA,"[7]; IC50 MCF-10A / IC50 MDA-MB-231, 24 h",5.38
same,Selective index of MCF-10A/MDA,"[7]; IC50 MCF-10A / IC50 MDA-MB-231, 48 h",5.25
same,Selective index of MCF-10A/MDA,"[7]; IC50 MCF-10A / IC50 MDA-MB-231, 72 h",4.63
same,IC50,[8]; 24 h,57 ± 3.75 µM
same,IC50,[8]; 48 h,29.9 ± 3.11 µM
same,IC50,[8]; 72 h,21.7 ± 1.76 µM
same,deregulation of cell cycle regulation related genes compared to DK1,[9],lower degree of deregulation
"O=C1c2ccccc2C(=O)c2c(O)cc(Br)cc21 [BHAQ, 3-Bromo-1-hydroxy-9,10-anthraquinone]",SI value,[1]; on MCF-7,2.31
